Measured values taken from paper PMC10866072, “Design, synthesis, molecular modelling and biological evaluation of novel 6-amino-5-cyano-2-thiopyrimidine derivatives as potent anticancer agents against leukemia and apoptotic inducers” (Journal of Enzyme Inhibition and Medicinal Chemistry, 2024).

Key:
MCF7 = format: cell-based; settings: Homo sapiens, one dose 10^-5 M, 48 h, read-out: % growth
SF-295 = format: cell-based; settings: Homo sapiens, one dose 10^-5 M, 48 h
HOP-92 = format: cell-based; settings: Homo sapiens, one dose 10^-5 M, 48 h
HCT-116 = format: cell-based; settings: Homo sapiens, one dose 10^-5 M, 48 h, read-out: % growth
NCI-H226 = format: cell-based; settings: Homo sapiens, one dose 10^-5 M, 48 h
NCI-H460 = format: cell-based; settings: Homo sapiens, one dose 10^-5 M, 48 h, read-out: % growth
OVCAR-4 = format: cell-based; settings: Homo sapiens, one dose 10^-5 M, 48 h
OVCAR-3 = format: cell-based; settings: Homo sapiens, one dose 10^-5 M, 48 h
SK-MEL-2 = format: cell-based; settings: Homo sapiens, one dose 10^-5 M, 48 h
K-562 = format: cell-based; settings: Homo sapiens, K562, one dose 10^-5 M, 48 h
NCI-H23 = format: cell-based; settings: Homo sapiens, one dose 10^-5 M, 48 h, read-out: % growth
ACHN = format: cell-based; settings: Homo sapiens, one dose 10^-5 M, 48 h
HCC-2998 = format: cell-based; settings: Homo sapiens, one dose 10^-5 M, 48 h
OVCAR-8 = format: cell-based; settings: Homo sapiens, one dose 10^-5 M, 48 h
HS 578T = format: cell-based; settings: Homo sapiens; one dose 10^-5 M, 48 h; HS 578T; read-out: % growth
SR = format: cell-based; settings: Homo sapiens, one dose 10^-5 M, 48 h
UACC-62 = format: cell-based; settings: Homo sapiens, one dose 10^-5 M, 48 h
SN12C = format: cell-based, human; settings: Homo sapiens, one dose 10^-5 M, 48 h
CAKI-1 = format: cell-based; settings: Homo sapiens, CAKI-1, 48 h, one dose 10^-5 M, 48 h
SK-MEL-28 = format: cell-based; settings: Homo sapiens, one dose 10^-5 M, 48 h
EKVX = format: cell-based; settings: Homo sapiens, one dose 10^-5 M, 48 h
MDA-MB-468 = format: cell-based; settings: Homo sapiens, one dose 10^-5 M, 48 h
TK-10 = format: cell-based; settings: Homo sapiens, one dose 10^-5 M, 48 h
HOP-62 = format: cell-based; settings: Homo sapiens, one dose 10^-5 M, 48 h
MDA-MB-435 = format: cell-based; settings: Homo sapiens, one dose 10^-5 M, 48 h, read-out: % growth
UACC-257 = format: cell-based; settings: Homo sapiens, one dose 10^-5 M, 48 h
MDA-MB-231/ATCC = format: cell-based; settings: Homo sapiens, one dose 10^-5 M, 48 h
HL-60(TB) = format: cell-based; settings: Homo sapiens, one dose 10^-5 M, 48 h
A498 = format: cell-based; settings: Homo sapiens, one dose 10^-5 M, 48 h
RPMI-8226 = format: cell-based; settings: Homo sapiens, one dose 10^-5 M, 48 h
SF-268 = format: cell-based; settings: Homo sapiens, one dose 10^-5 M, 48 h, read-out: % growth
OVCAR-5 = format: cell-based; settings: Homo sapiens, one dose 10^-5 M, 48 h
T-47D = format: cell-based; settings: Homo sapiens, T47D, one dose 10^-5 M, 48 h, read-out: % growth
A549/ATCC = format: cell-based; settings: Homo sapiens, one dose 10^-5 M, 48 h
CCRF-CEM = format: cell-based; settings: Homo sapiens, one dose 10^-5 M, 48 h
UO-31 = format: cell-based; settings: Homo sapiens, UO-31, 48 h, one dose 10^-5 M, 48 h
SK-OV-3 = format: cell-based; settings: Homo sapiens, one dose 10^-5 M, 48 h
SNB-19 = format: cell-based; settings: Homo sapiens, one dose 10^-5 M, 48 h, read-out: % growth
[1] = test system: full NCI 60 cell lines panel; settings: for activity at 10 µM: Homo sapiens, 60 cell, 48 h, read-out: Mean % growth
Description: 60 different human tumour cell lines-representing leukaemia, melanoma, and malignancies of the lung, colon, brain, ovary, breast, prostate, and kidney are used in the operation of this screen.
Compounds were dissolved in DMSO: glycerol (91) and were kept in a freezer at −70° C. The synthesised compounds were introduced to the culture at a single concentration of 1 0 ^−5 M and left to incubate for 48 h. A protein-binding dye called sulforhodamine B was used to measure end points (SRB).
A mean graph showing the % growth of treated cells is used to represent the one-dose data. The value provided for the One-dose assay represents growth in comparison to the no-drug control and to the number of cells at time zero. This enables the identification of lethality (values between 0 and 100) as well as growth inhibition (values less than 0). A value of 100, for instance, indicates no growth inhibition. A value of 40 would indicate 60% growth inhibition. A value of 0 indicates no net growth over the course of the experiment. A value of −40 would indicate 40% lethality.
Furthermore, the average sensitivity of all cell lines to the compound is termed as the full panel mean graph midpoints (MG-MID). The complete panel mean graph midpoints refers to the average sensitivity of all cell lines to the chemical (MG-MID). A measure of a compound’s selectivity for a given cell line is the ratio created by dividing the full panel mean graph midpoints (MG-MID) concentration by the individual subpanel MG-MID concentrations (obtained as the average sensitivity of all the cell lines in a given subpanel to the test compound).

HT29 = format: cell-based; settings: Homo sapiens, HT-29, one dose 10^-5 M, 48 h
SF-539 = format: cell-based; settings: Homo sapiens, one dose 10^-5 M, 48 h
RXF 393 = format: cell-based; settings: Homo sapiens, RXF 393, 48 h, one dose 10^-5 M, 48 h, read-out: % growth
HCT-15 = format: cell-based; settings: Homo sapiens, one dose 10^-5 M, 48 h, read-out: % growth
PC-3 = format: cell-based; settings: Homo sapiens, one dose 10^-5 M, 48 h
MALME-3M = format: cell-based; settings: Homo sapiens, one dose 10^-5 M, 48 h
IGROV1 = format: cell-based; settings: Homo sapiens, IGROV-1, one dose 10^-5 M, 48 h, read-out: % growth
LOX IMVI = format: cell-based; settings: Homo sapiens, one dose 10^-5 M, 48 h, read-out: % growth
M14 = format: cell-based; settings: Homo sapiens, one dose 10^-5 M, 48 h
SNB-75 = format: cell-based; settings: Homo sapiens, one dose 10^-5 M, 48 h
NCI-H522 = format: cell-based; settings: Homo sapiens, one dose 10^-5 M, 48 h
U251 = format: cell-based; settings: Homo sapiens, U-251, one dose 10^-5 M, 48 h
MOLT-4 = format: cell-based; settings: Homo sapiens, one dose 10^-5 M, 48 h, read-out: % growth
KM12 = format: cell-based; settings: Homo sapiens, one dose 10^-5 M, 48 h
786-0 = format: cell-based; settings: Homo sapiens, one dose 10^-5 M, 48 h
SK-MEL-5 = format: cell-based; settings: Homo sapiens, one dose 10^-5 M, 48 h, read-out: % growth
SW-620 = format: cell-based; settings: Homo sapiens, one dose 10^-5 M, 48 h
DU-145 = format: cell-based; settings: Homo sapiens, one dose 10^-5 M, 48 h

Question: With `N#Cc1c(N)nc(S)nc1-c1ccc(Cl)cc1` [Compound 1b] as the compound, how does the activity at 10 µM (MCF7) read?
Answer: 67.7%

Question: And the % cell growth at 10 µM (SF-295)?
Answer: 76.2%

Question: And the % growth at 10 µM (HOP-92)?
Answer: 43.5%

Question: And the activity at 10 µM (HCT-116)?
Answer: 76.5%

Question: What about the % growth at 10 µM (NCI-H226) of the same compound?
Answer: 78.7%

Question: And the activity at 10 µM (NCI-H460)?
Answer: 86.7%

Question: And the % growth at 10 µM (OVCAR-4)?
Answer: 76.2%

Question: What about the % growth at 10 µM (OVCAR-3) of the same compound?
Answer: 93.4%

Question: What about the % growth at 10 µM (SK-MEL-2) of the same compound?
Answer: 96.5%

Question: What about the % growth at 10 µM (K-562) of the same compound?
Answer: 68.1%

Question: And the activity at 10 µM (NCI-H23)?
Answer: 85.5%

Question: And the % growth at 10 µM (ACHN)?
Answer: 77.2%

Question: And the % growth at 10 µM (HCC-2998)?
Answer: 99.6%

Question: And the % growth of cells at 10 µM (OVCAR-8)?
Answer: 82.2%

Question: And the activity at 10 µM (HS 578T)?
Answer: 74%

Question: What about the percent cell growth at 10 µM (SR) of the same compound?
Answer: 66.9%

Question: What about the % growth at 10 µM (UACC-62) of the same compound?
Answer: 66.8%

Question: And the % growth at 10 µM (SN12C)?
Answer: 75.7%

Question: What about the % growth at 10 µM (CAKI-1) of the same compound?
Answer: 52%

Question: What about the % cell growth at 10 µM (SK-MEL-28) of the same compound?
Answer: 95.6%

Question: And the % cell growth at 10 µM (EKVX)?
Answer: 61%

Question: And the percent cell growth at 10 µM (MDA-MB-468)?
Answer: 81.1%

Question: And the % cell growth at 10 µM (TK-10)?
Answer: 126%

Question: What about the % growth at 10 µM (HOP-62) of the same compound?
Answer: 74.6%

Question: And the activity at 10 µM (MDA-MB-435)?
Answer: 86.5%

Question: And the percent cell growth at 10 µM (UACC-257)?
Answer: 102%

Question: What about the % growth at 10 µM (MDA-MB-231/ATCC) of the same compound?
Answer: 53.7%

Question: And the % growth at 10 µM (HL-60(TB))?
Answer: 69.6%

Question: And the % growth at 10 µM (A498)?
Answer: 77.4%

Question: What about the % growth at 10 µM (RPMI-8226) of the same compound?
Answer: 47.2%

Question: What about the activity at 10 µM (SF-268) of the same compound?
Answer: 69.7%

Question: What about the percent cell growth at 10 µM (OVCAR-5) of the same compound?
Answer: 91.6%

Question: And the activity at 10 µM (T-47D)?
Answer: 58.3%

Question: And the % growth at 10 µM (A549/ATCC)?
Answer: 86%

Question: What about the % cell growth at 10 µM (CCRF-CEM) of the same compound?
Answer: 65.5%

Question: What about the % cell growth at 10 µM (UO-31) of the same compound?
Answer: 45.4%

Question: What about the % growth at 10 µM (SK-OV-3) of the same compound?
Answer: 84.3%

Question: What about the activity at 10 µM (SNB-19) of the same compound?
Answer: 60.4%

Question: What about the activity at 10 µM [1] of the same compound?
Answer: 75.7%

Question: What about the % growth at 10 µM (HT29) of the same compound?
Answer: 91.1%

Question: And the % growth at 10 µM (SF-539)?
Answer: 71.9%

Question: And the activity at 10 µM (RXF 393)?
Answer: 55.5%

Question: And the activity at 10 µM (HCT-15)?
Answer: 86%

Question: What about the percent cell growth at 10 µM (PC-3) of the same compound?
Answer: 56.4%

Question: What about the % growth at 10 µM (MALME-3M) of the same compound?
Answer: 99.6%

Question: And the activity at 10 µM (IGROV1)?
Answer: 57.9%

Question: And the activity at 10 µM (LOX IMVI)?
Answer: 79.2%

Question: And the % growth at 10 µM (M14)?
Answer: 99.9%

Question: What about the % growth at 10 µM (SNB-75) of the same compound?
Answer: 42.2%

Question: And the % growth at 10 µM (NCI-H522)?
Answer: 58.7%

Question: What about the % growth at 10 µM (U251) of the same compound?
Answer: 81.6%

Question: What about the activity at 10 µM (MOLT-4) of the same compound?
Answer: 50.7%

Question: And the % growth at 10 µM (KM12)?
Answer: 82%

Question: And the % growth at 10 µM (786-0)?
Answer: 85%

Question: What about the activity at 10 µM (SK-MEL-5) of the same compound?
Answer: 85.9%

Question: And the % growth at 10 µM (SW-620)?
Answer: 87.3%

Question: What about the % growth at 10 µM (DU-145) of the same compound?
Answer: 86.8%

Question: Which results are given for `COc1ccc(C=NNC(=N)c2c(N)nc(S)nc2-c2ccc(Cl)cc2)cc1` [Compound 4j, 4-amino-6–(4-chlorophenyl)-2-mercapto-N'-[(4-methoxyphenyl)methylene] pyrimidine-5-carboximidohydrazide]?
Answer: activity at 10 µM (MCF7): 86.6%; % cell growth at 10 µM (SF-295): 97.5%; % growth at 10 µM (HOP-92): 107%; activity at 10 µM (HCT-116): 107%; % growth at 10 µM (NCI-H226): 125%; activity at 10 µM (NCI-H460): 119%; % growth at 10 µM (OVCAR-4): 99.6%; % growth at 10 µM (OVCAR-3): 110%; % growth at 10 µM (SK-MEL-2): 110%; % growth at 10 µM (K-562): 95%; activity at 10 µM (NCI-H23): 103%; % growth at 10 µM (ACHN): 97.4%; % growth at 10 µM (HCC-2998): 113%; % growth of cells at 10 µM (OVCAR-8): 101%; activity at 10 µM (HS 578T): 107%; percent cell growth at 10 µM (SR): 97.3%; % growth at 10 µM (UACC-62): 92.9%; % growth at 10 µM (SN12C): 93.6%; % growth at 10 µM (CAKI-1): 91.9%; % cell growth at 10 µM (SK-MEL-28): 111%; % cell growth at 10 µM (EKVX): 94.8%; percent cell growth at 10 µM (MDA-MB-468): 114%; % cell growth at 10 µM (TK-10): 143%; % growth at 10 µM (HOP-62): 90.3%; activity at 10 µM (MDA-MB-435): 104%; percent cell growth at 10 µM (UACC-257): 110%; % growth at 10 µM (MDA-MB-231/ATCC): 91.3%; % growth at 10 µM (HL-60(TB)): 111%; % growth at 10 µM (A498): 125%; % growth at 10 µM (RPMI-8226): 91.2%; activity at 10 µM (SF-268): 113%; percent cell growth at 10 µM (OVCAR-5): 102%; activity at 10 µM (T-47D): 86.8%; % growth at 10 µM (A549/ATCC): 107%; % cell growth at 10 µM (CCRF-CEM): 89.7%; % cell growth at 10 µM (UO-31): 77.5%; % growth at 10 µM (SK-OV-3): 93.7%; activity at 10 µM (SNB-19): 90.5%; activity at 10 µM [1]: 103%; activity on all 60 cancer cell lines tested (in words) ([1]; one dose): weak activity; % growth at 10 µM (HT29): 105%; % growth at 10 µM (SF-539): 101%; activity at 10 µM (RXF 393): 124%; activity at 10 µM (HCT-15): 95.6%; percent cell growth at 10 µM (PC-3): 82.6%; % growth at 10 µM (MALME-3M): 105%; activity at 10 µM (IGROV1): 91.5%; activity at 10 µM (LOX IMVI): 104%; % growth at 10 µM (M14): 109%; % growth at 10 µM (SNB-75): 103%; % growth at 10 µM (NCI-H522): 101%; % growth at 10 µM (U251): 107%; activity at 10 µM (MOLT-4): 101%; % growth at 10 µM (KM12): 100%; % growth at 10 µM (786-0): 104%; activity at 10 µM (SK-MEL-5): 102%; % growth at 10 µM (SW-620): 112%; % growth at 10 µM (DU-145): 118%
